Experiments:
α-synuclein lesion = target: T1, α-synuclein lesion (Mus musculus, UniProt O55042); assay: In vivo two-photon laser scanning fluorescence microscopy of α-synuclein fibril-inoculated model mouse; settings: 50 μl DMSO solution containing 0.1% compound, i.p.
T1 construct: from tissue; host or cells: brain of C57/BL/6 mouse inoculated in the striatum with recombinant (E. coli) mouse α-synuclein fibrils; sections or living animal
Procedure: First, mouse α-synuclein was expressed in and extracted from E. coli as a recombinant protein, and then incubated in vitro to form insoluble α-synuclein aggregates. The α-synuclein aggregates were then inoculated into the striatum of a mouse. […] Note that the inoculation of the α-synuclein aggregates into the striatum of the mouse was carried out in the following manner. First, hair on the head of a 9-week-old C57/BL/6 male mouse which had been anesthetized with 1.5% (v/v) isoflurane was removed, and the scalp was disinfected with isodine, followed by application of xylocaine and incision in the scalp to expose the skull. Then, a hole was drilled in the skull at a position of 0.05 mm posterior to the bregma and 2 mm lateral to the midline, and 3 μl of an α-synuclein fibril solution (mouse α-synuclein fibril (4 mg/ml) in saline) was injected into a position […] ventral to the brain surface with use of a glass pipette. The scalp was then returned and sutured.
A model mouse was anesthetized with 1.5% (v/v) isoflurane 6 or more weeks after inoculation of an α-synuclein fibril solution. Then, a cranial window was placed on the model mouse in accordance with the Seylaz-Tomita method (Tomita et al. J Cereb Blood Flow Metab 25, 858-67, 2005). Two or more weeks after the placement of the cranial window, the mouse was anesthetized with 1.5% (v/v) isoflurane, and then 50 μl of a DMSO solution containing 0.1% BF-227, PBB3, SPAL-T-05, or SPAL-T-06 was intraperitoneally administered to the mouse. Thirty minutes after the administration, the mouse was fixed under a two-photon laser fluorescence microscope, 100 μl of physiological saline containing 5 mM Sulforhodamine 101 was intraperitoneally administered to the mouse, and then intravital two-photon fluorescence imaging was carried out at an excitation wavelength of 900 nm. Detection wavelengths for BF-227, PBB3, SPAL-T-05, and SPAL-T-06 were set at 500 nm to 550 nm, and a detection wavelength for Sulforhodamine 101 was set at 573 nm to 648 nm. In FIG. 4, each arrowhead indicates a blood vessel, and each arrow indicates fluorescence from the compound binding to an α-synuclein lesion.

α-synuclein aggregates = α-synuclein aggregates (Homo sapiens, UniProt P37840); assay: In vitro fluorescence microscope measurement, amygdala sections of DLB patient brain; set-up: α-synuclein aggregates formed in the brain of the DLB patient; from tissue; host or cells: post-mortem human brain: amygdala of DLB patient (sections or homogenate); cerebellum of MSA patient; settings: 30 μM test compound
Source text: Postmortem human brains were obtained in autopsies carried out with respect to a patient with dementia with Lewy bodies (DLB) and a patient with Alzheimer's disease (AD). In a cryostat (HM560, Carl Zeiss), frozen tissue from the DLB patient was sliced into sections each having a thickness of 20 μm. Brain tissue from the AD patient was fixed in 10% neutral buffered formalin, embedded in a paraffin block, and sliced into sections each having a thickness of 6 μm.
Postfixed fresh frozen sections of amygdala tissue obtained from the brain of the DLB patient and deparaffinized sections of formalin-fixed paraffin-embedded middle frontal gyrus tissue obtained from the brain of the AD patient were used. Each brain section and a 30 μM test compound were incubated in a 50% ethanol solution at room temperature for 30 minutes. Thereafter, the section was washed with a 50% ethanol solution for 5 minutes and with ultrapure water for 3 minutes. This washing was carried out twice. After the section was mounted in a mounting medium (VECTASHIELD H-1000, Vector Laboratories), an image of a lesion-enriched area on the section was obtained with use of a fluorescence microscope (DM4000, Leica, excitation wavelength: 391 nm to 437 nm). In FIG. 1, each arrowhead indicates fluorescence from the compound binding to α-synuclein aggregates in the brain of the DLB patient, each arrow indicates fluorescence from the compound binding to amyloid-β aggregates in the brain of the AD patient, and an asterisk indicates fluorescence from the compound binding to tau aggregates in the brain of the AD patient. The fluorescence intensities of lesion-enriched areas and lesion-free areas (background) were quantified with use of analysis software (Image J). Note that SPAL-T-05 and SPAL-T-06 were each used as the test compound. Note also that BF-227 (2-(2-[2-dimethylaminothiazol-5-yl]ethenyl)-6-(2-[fluoro]ethoxy)benzoxazole (catalog No.: NP039-0)) and PBB3 (2-((1E,3E)-4-(6-(methylamino)pyridin-3-yl)buta-1,3-dienyl)benzo[d]thiazol-6-ol) (catalog No.: NP039-0), each available from NARD INSTITUTE, LTD., were each used as a control compound.

detection of / binding to α-synuclein lesions in living mouse brain (two-photon fluorescence) (α-synuclein lesion; excitation 900 nm): bound to α-synuclein lesions
binding to α-synuclein aggregates formed in the brain of the DLB patient (fluorescence) (α-synuclein aggregates; 50% ethanol, room temperature, 30 minutes, amygdala sections): reactivity greater than that of PBB3
SMILES: CNc1cnc(C#C/C=C/c2nc3ccc(OCC(O)CF)cc3s2)cn1 (stereo not shown) [SPAL-T-06, (E)-1-fluoro-3-((2-(4-(5-(methylamino)pyrazin-2-yl)but-1-en-3-yn-1-yl)benzo[d]thiazol-6-yl)oxy)propan-2-ol]
delivery into the brain after intraperitoneal administration (α-synuclein lesion; imaging 30 minutes after administration): delivered into the brain and further into neurons of the living body
binding selectivity: α-synuclein aggregates (DLB brain) versus tau aggregates or amyloid-β aggregates (AD brain) (α-synuclein aggregates; fluorescence of lesion-enriched vs lesion-free areas): greater than binding of each of SPAL-T-06 and SPAL-T-05 to tau aggregates or amyloid-β aggregates

From patent US12630544B2, “Compound, α-synuclein aggregate binder, and use thereof” (NATIONAL INSTITUTES FOR QUANTUM SCIENCE AND TECHNOLOGY, priority 2020, dated 2026)
